According to US20090143279A1 (priority 2007, published 2009):
Where a name gives a salt, the structure may show the parent alone. Read-outs that look alike come from different tables or passages of the source.

How the values were obtained:
[1] = tested on: mitochondrial membrane potential; type: cell-based, mouse
nuOXPHOS transcripts = type: cell-based, mouse
mtOXPHOS transcripts = type: cell-based, mouse
[2] = tested on: cellular dehydrogenase activity
cytochrome c = type: cell-based, mouse
OXPHOS gene expression = type: cell-based, mouse
reactive oxygen species = type: cell-based, mouse
[3] = composite Z-score vs DMSO wells, Conc 20 μM
[4] = 20 μM, composite Z-score vs DMSO
[5] = composite Z-score vs DMSO, Conc 20 μM
[6] = Table 4, C2C12 myotubes, 48 h, composite Z-score
[7] = Conc 20 μM, normalized score vs mock-treated (DMSO) wells
[8] = 20.6 μM, composite Z-score vs DMSO

Question: With NC(=O)c1ccc([N+](=O)[O-])cc1Cl [aklomide] as the molecule, how does the Viability (C2C12 myotubes; [3]) read?
Answer: 0.408

Question: What about the ΔΨm [1, 3] of the same molecule?
Answer: −0.447

Question: And the nucOX (nuOXPHOS transcripts; [3])?
Answer: 0.594

Question: What about the mitoOX (mtOXPHOS transcripts; [3]) of the same molecule?
Answer: −0.136

Question: And the MTT [2, 3]?
Answer: 1.426

Question: And the cyt c (cytochrome c; [3])?
Answer: 0.510

Question: What about the GE-HTS (OXPHOS gene expression; [3]) of the same molecule?
Answer: 0.378

Question: What about the ROS (reactive oxygen species; [3]) of the same molecule?
Answer: 0.061

Question: For CCCCC(CC)CNC(=N)NC(=N)NCCCCCCNC(=N)NC(=N)NCC(CC)CCCC (stereo not shown) [alexidine], which Viability (C2C12 myotubes) is on record?
Answer: −4.805

Question: And the Viability (C2C12 myotubes; [4])?
Answer: −2.974

Question: And the ΔΨm [1]?
Answer: −3.726

Question: And the ΔΨm [1, 4]?
Answer: −1.139

Question: And the nucOX (nuOXPHOS transcripts)?
Answer: −1.387

Question: And the nucOX (nuOXPHOS transcripts; [4])?
Answer: −0.289

Question: What about the mitoOX (mtOXPHOS transcripts) of the same molecule?
Answer: −2.011

Question: And the mitoOX (mtOXPHOS transcripts; [4])?
Answer: −0.150

Question: And the MTT [2]?
Answer: −5.432

Question: What about the MTT [2, 4] of the same molecule?
Answer: −2.693

Question: And the cyt c (cytochrome c)?
Answer: −3.201

Question: What about the cyt c (cytochrome c; [4]) of the same molecule?
Answer: −3.981

Question: What about the GE-HTS (OXPHOS gene expression) of the same molecule?
Answer: −1.696

Question: And the GE-HTS (OXPHOS gene expression; [4])?
Answer: −0.288

Question: And the ROS (reactive oxygen species)?
Answer: −4.270

Question: And the ROS (reactive oxygen species; [4])?
Answer: −0.298

Question: Which results are given for C[C@H](CCC(=O)O)[C@H]1CC[C@H]2[C@@H]3CC[C@H]4C[C@H](O)CC[C@]4(C)[C@H]3C[C@H](O)[C@]12C [allodeoxycholic acid]?
Answer: Viability (C2C12 myotubes; [5]): −1.161; ΔΨm [1, 5]: 0.404; nucOX (nuOXPHOS transcripts; [5]): −0.903; mitoOX (mtOXPHOS transcripts; [5]): −0.773; MTT [2, 5]: −2.126; cyt c (cytochrome c; [5]): −2.903; GE-HTS (OXPHOS gene expression; [5]): −0.905; ROS (reactive oxygen species; [5]): −0.164

Question: Which Viability (C2C12 myotubes; [4]) does the source give for Oc1ncnc2[nH]ncc12 [allopurinol] here?
Answer: 0.376

Question: What about the ΔΨm [1, 4] of the same molecule?
Answer: −0.204

Question: And the nucOX (nuOXPHOS transcripts; [4])?
Answer: −0.849

Question: And the mitoOX (mtOXPHOS transcripts; [4])?
Answer: −0.798

Question: And the MTT [2, 4]?
Answer: −1.611

Question: And the cyt c (cytochrome c; [4])?
Answer: −0.105

Question: What about the GE-HTS (OXPHOS gene expression; [4]) of the same molecule?
Answer: −0.869

Question: And the ROS (reactive oxygen species; [4])?
Answer: 1.448

Question: What does the source list for N#CC(=Cc1cccc(O)c1)C(=O)O [alpha-cyano-3-hydroxycinnamic acid]?
Answer: Viability (C2C12 myotubes; [4]): −0.861; ΔΨm [1, 4]: −0.165; nucOX (nuOXPHOS transcripts; [4]): −0.903; mitoOX (mtOXPHOS transcripts; [4]): −0.285; MTT [2, 4]: −0.323; cyt c (cytochrome c; [4]): 0.349; GE-HTS (OXPHOS gene expression; [4]): −0.747; ROS (reactive oxygen species; [4]): 0.452

Question: With CC(=O)Oc1c(C)c(C)c2c(c1C)CCC(C)(CCCC(C)CCCC(C)CCCC(C)C)O2 (stereo not drawn) [alpha-tochopheryl acetate] as the molecule, how does the Viability (C2C12 myotubes; [4]) read?
Answer: −0.957

Question: And the ΔΨm [1, 4]?
Answer: −0.734

Question: What about the nucOX (nuOXPHOS transcripts; [4]) of the same molecule?
Answer: 0.339

Question: And the mitoOX (mtOXPHOS transcripts; [4])?
Answer: −0.094

Question: And the MTT [2, 4]?
Answer: −1.398

Question: And the cyt c (cytochrome c; [4])?
Answer: 0.261

Question: What about the GE-HTS (OXPHOS gene expression; [4]) of the same molecule?
Answer: 0.212

Question: And the ROS (reactive oxygen species; [4])?
Answer: 0.364

Question: How did the Viability (C2C12 myotubes; [6]) turn out when COc1cc2c(cc1OC)[C@@H]1C(=O)c3c(O)cc4c(c3O[C@@H]1CO2)C=CC(C)(C)O4 [alpha-toxicarol, reference compound] was run?
Answer: 0.304

Question: And the Viability (C2C12 myotubes; [5])?
Answer: 0.304

Question: And the ΔΨm ([1]; Table 4, C2C12 myotubes, 48 h, JC-1, composite Z-score)?
Answer: 0.820

Question: What about the ΔΨm [1, 5] of the same molecule?
Answer: 0.820

Question: What about the nucOX (nuOXPHOS transcripts; [5]) of the same molecule?
Answer: 0.124

Question: And the mitoOX (mtOXPHOS transcripts; [5])?
Answer: −0.345

Question: And the MTT [2, 6]?
Answer: −1.982

Question: And the MTT [2, 5]?
Answer: −1.982

Question: And the cyt c (cytochrome c; [5])?
Answer: −2.637

Question: And the GE-HTS (OXPHOS gene expression; [5])?
Answer: −0.046

Question: And the ROS (reactive oxygen species; [6])?
Answer: 0.101

Question: What about the ROS (reactive oxygen species; [5]) of the same molecule?
Answer: 0.101

Question: Which results are given for COc1cc(OC)c2c(c1)OC(c1ccccc1)CC2=O (stereo not shown) [alpinetin methyl ether]?
Answer: Viability (composite Z-score) (C2C12 myotubes; [7]): 0.220; ΔΨm (composite Z-score) [1, 7]: −0.286; nucOX (composite Z-score) (nuOXPHOS transcripts; [7]): −0.437; mitoOX (composite Z-score) (mtOXPHOS transcripts; [7]): −0.717; MTT (composite Z-score) [2, 7]: −0.694; cyt c (composite Z-score) (cytochrome c; [7]): −0.145; GE-HTS (composite Z-score) (OXPHOS gene expression; [7]): −0.565; ROS (composite Z-score) (reactive oxygen species; [7]): 0.827

Question: With CN(C)c1nc(N(C)C)nc(N(C)C)n1 [altretamine] as the molecule, how does the Viability (C2C12 myotubes) read?
Answer: −0.533

Question: And the Viability (C2C12 myotubes; [4])?
Answer: −0.315

Question: What about the ΔΨm [1] of the same molecule?
Answer: −0.440

Question: What about the ΔΨm [1, 4] of the same molecule?
Answer: −0.322

Question: What about the nucOX (nuOXPHOS transcripts) of the same molecule?
Answer: 0.750

Question: And the nucOX (nuOXPHOS transcripts; [4])?
Answer: 0.488

Question: What about the mitoOX (mtOXPHOS transcripts) of the same molecule?
Answer: 0.972

Question: And the mitoOX (mtOXPHOS transcripts; [4])?
Answer: 0.069

Question: And the MTT [2]?
Answer: −0.442

Question: What about the MTT [2, 4] of the same molecule?
Answer: −1.416

Question: What about the cyt c (cytochrome c) of the same molecule?
Answer: 0.040

Question: What about the cyt c (cytochrome c; [4]) of the same molecule?
Answer: −0.631

Question: What about the GE-HTS (OXPHOS gene expression) of the same molecule?
Answer: 0.884

Question: And the GE-HTS (OXPHOS gene expression; [4])?
Answer: 0.379

Question: And the ROS (reactive oxygen species)?
Answer: 0.462

Question: And the ROS (reactive oxygen species; [4])?
Answer: 0.103

Question: Which results are given for CCN(CCCc1ccccc1)CCCc1ccccc1 [alverine citrate]?
Answer: Viability (C2C12 myotubes; [5]): 0.885; ΔΨm [1, 5]: 0.433; nucOX (nuOXPHOS transcripts; [5]): −0.098; mitoOX (mtOXPHOS transcripts; [5]): −0.442; MTT [2, 5]: −0.018; cyt c (cytochrome c; [5]): −0.433; GE-HTS (OXPHOS gene expression; [5]): −0.238; ROS (reactive oxygen species; [5]): 1.116

Question: How did the Viability (C2C12 myotubes; [5]) turn out when NCC[C@H](O)C(=O)N[C@@H]1C[C@H](N)[C@@H](O[C@H]2O[C@H](CN)[C@@H](O)[C@H](O)[C@H]2O)[C@H](O)[C@H]1O[C@H]1O[C@H](CO)[C@@H](O)[C@H](N)[C@H]1O [amikacin] was run?
Answer: 0.034

Question: And the ΔΨm [1, 5]?
Answer: −0.116

Question: What about the nucOX (nuOXPHOS transcripts; [5]) of the same molecule?
Answer: 0.268

Question: And the mitoOX (mtOXPHOS transcripts; [5])?
Answer: 0.338

Question: And the MTT [2, 5]?
Answer: −1.688

Question: And the cyt c (cytochrome c; [5])?
Answer: −0.090

Question: And the GE-HTS (OXPHOS gene expression; [5])?
Answer: 0.332

Question: What about the ROS (reactive oxygen species; [5]) of the same molecule?
Answer: 0.301

Question: Nc1ccc(C(=O)NCC(=O)O)cc1 [aminohippuric acid] was tested. Which Viability (C2C12 myotubes; [4]) did it give?
Answer: 0.597

Question: What about the Viability (C2C12 myotubes; [8]) of the same molecule?
Answer: −0.266

Question: And the ΔΨm [1, 4]?
Answer: −0.606

Question: What about the ΔΨm [1, 8] of the same molecule?
Answer: −0.343

Question: What about the nucOX (nuOXPHOS transcripts; [4]) of the same molecule?
Answer: 0.160

Question: And the nucOX (nuOXPHOS transcripts; [8])?
Answer: 0.976

Question: What about the mitoOX (mtOXPHOS transcripts; [4]) of the same molecule?
Answer: 0.304

Question: What about the mitoOX (mtOXPHOS transcripts; [8]) of the same molecule?
Answer: −0.395

Question: What about the MTT [2, 4] of the same molecule?
Answer: −0.983

Question: And the MTT [2, 8]?
Answer: −0.126

Question: And the cyt c (cytochrome c; [4])?
Answer: 0.243

Question: And the cyt c (cytochrome c; [8])?
Answer: 0.320

Question: And the GE-HTS (OXPHOS gene expression; [4])?
Answer: 0.220

Question: And the GE-HTS (OXPHOS gene expression; [8])?
Answer: 0.568

Question: And the ROS (reactive oxygen species; [4])?
Answer: −0.310

Question: And the ROS (reactive oxygen species; [8])?
Answer: 0.426
